Test results taken from ChEMBL document CHEMBL3885881, “DrugMatrix”.

Species on record: Rattus norvegicus
Type: toxicity, organism-based, Sprague-Dawley
Conditions: in vivo, ip, route intraperitoneal, vehicle 100 % SALINE; for ABSOLUTE EOSINOPHIL / ABSOLUTE LYMPHOCYTE / ABSOLUTE MONOCYTE / ABSOLUTE SEGMENTED NEUTROPHIL / BASOPHIL / EOSINOPHIL / ERYTHROCYTE COUNT / HEMATOCRIT / HEMOGLOBIN / LEUKOCYTE COUNT / LYMPHOCYTE / MEAN CORPUSCULAR HEMOGLOBIN / MEAN CORPUSCULAR HEMOGLOBIN CONCENTRATION / MEAN CORPUSCULAR VOLUME / MONOCYTE / NEUTROPHIL / NUCLEATED RED BLOOD CELLS / PLATELET COUNT: tissue Blood; for ALANINE AMINOTRANSFERASE / ALBUMIN / ALKALINE PHOSPHATASE / ASPARTATE AMINOTRANSFERASE / BLOOD UREA NITROGEN / CARBON DIOXIDE / CHLORIDE / CHOLESTEROL / CREATINE PHOSPHOKINASE / CREATININE / GLUCOSE / LACTATE DEHYDROGENASE / LIPASE / PHOSPHORUS / POTASSIUM / SODIUM / TOTAL BILIRUBIN / TOTAL PROTEIN / URIC ACID: tissue Plasma
[1] = 0 mg/kg, 6 h, vehicle control, dose level Control, time 0.25 day
[2] = 0 mg/kg, 24 h, vehicle control, dose level Control, time 1 day
[3] = 16 mg/kg, 6 h, dose level Low, time 0.25 day

Description: DrugMatrix - Regimen: Single

## C=CCO [ALLYL ALCOHOL]
[1]
  ABSOLUTE EOSINOPHIL: 63 CELLS/uL
  ABSOLUTE LYMPHOCYTE: 12886.67 CELLS/uL
  ABSOLUTE MONOCYTE: 302.5 CELLS/uL
  ABSOLUTE SEGMENTED NEUTROPHIL: 2997.83 CELLS/uL
  BASOPHIL: 0%
  EOSINOPHIL: 0.33%
  ERYTHROCYTE COUNT: 5.45 x10E6/uL
  HEMATOCRIT: 34.93%
  HEMOGLOBIN: 13.88 G/DL
  LEUKOCYTE COUNT: 16.25 x10E3/uL
  LYMPHOCYTE: 79.17%
  MEAN CORPUSCULAR HEMOGLOBIN: 25.48 pg
  MEAN CORPUSCULAR HEMOGLOBIN CONCENTRATION: 39.77 G/DL
  MEAN CORPUSCULAR VOLUME: 64.13 fL
  MONOCYTE: 1.83%
  NEUTROPHIL: 18.67%
  NUCLEATED RED BLOOD CELLS: 0 /100WBC
  PLATELET COUNT: 1184.67 x10E3/uL
  ALANINE AMINOTRANSFERASE: 35 u/L
  ALBUMIN: 4.25 G/DL
  ALKALINE PHOSPHATASE: 281.83 u/L
  ASPARTATE AMINOTRANSFERASE: 79.5 u/L
  BLOOD UREA NITROGEN: 11.67 mg/dL
  CARBON DIOXIDE: 27 mmol/L
  CHLORIDE: 100.33 MEQ/L
  CHOLESTEROL: 60.67 mg/dL
  CREATINE PHOSPHOKINASE: 275.5 u/L
  CREATININE: 0.13 mg/dL
  GLUCOSE: 162.5 mg/dL
  LACTATE DEHYDROGENASE: 258.83 u/L
  LIPASE: 9.33 u/L
  PHOSPHORUS: 11.42 mg/dL
  POTASSIUM: 6.16 MEQ/L
  SODIUM: 145.08 MEQ/L
  TOTAL BILIRUBIN: 0.18 mg/dL
  TOTAL PROTEIN: 5.73 G/DL
  URIC ACID: 1.58 mg/dL
[2]
  ABSOLUTE EOSINOPHIL: 18.5 CELLS/uL
  ABSOLUTE LYMPHOCYTE: 12859.83 CELLS/uL
  ABSOLUTE MONOCYTE: 190.83 CELLS/uL
  ABSOLUTE SEGMENTED NEUTROPHIL: 1230.83 CELLS/uL
  BASOPHIL: 0%
  EOSINOPHIL: 0.17%
  ERYTHROCYTE COUNT: 5.2 x10E6/uL
  HEMATOCRIT: 33.25%
  HEMOGLOBIN: 13.37 G/DL
  LEUKOCYTE COUNT: 14.3 x10E3/uL
  LYMPHOCYTE: 89.83%
  MEAN CORPUSCULAR HEMOGLOBIN: 25.73 pg
  MEAN CORPUSCULAR HEMOGLOBIN CONCENTRATION: 40.25 G/DL
  MEAN CORPUSCULAR VOLUME: 64 fL
  MONOCYTE: 1.33%
  NEUTROPHIL: 8.67%
  NUCLEATED RED BLOOD CELLS: 0 /100WBC
  PLATELET COUNT: 1075.5 x10E3/uL
  ALANINE AMINOTRANSFERASE: 54.17 u/L
  ALBUMIN: 4.25 G/DL
  ALKALINE PHOSPHATASE: 280.67 u/L
  ASPARTATE AMINOTRANSFERASE: 84.67 u/L
  BLOOD UREA NITROGEN: 13.33 mg/dL
  CARBON DIOXIDE: 26.33 mmol/L
  CHLORIDE: 99.67 MEQ/L
  CHOLESTEROL: 72 mg/dL
  CREATINE PHOSPHOKINASE: 620 u/L
  CREATININE: 0.17 mg/dL
  GLUCOSE: 169.17 mg/dL
  LACTATE DEHYDROGENASE: 189.17 u/L
  LIPASE: 9.67 u/L
  PHOSPHORUS: 10.57 mg/dL
  POTASSIUM: 5.16 MEQ/L
  SODIUM: 142.2 MEQ/L
  TOTAL BILIRUBIN: 0.18 mg/dL
  TOTAL PROTEIN: 5.78 G/DL
  URIC ACID: 1.25 mg/dL
[3]
  ABSOLUTE EOSINOPHIL: 48.67 CELLS/uL
  ABSOLUTE LYMPHOCYTE: 11033.33 CELLS/uL
  ABSOLUTE MONOCYTE: 230.5 CELLS/uL
  ABSOLUTE SEGMENTED NEUTROPHIL: 2270.83 CELLS/uL
  BASOPHIL: 0%
  EOSINOPHIL: 0.33%
  ERYTHROCYTE COUNT: 5.38 x10E6/uL
  HEMATOCRIT: 34.4%
  HEMOGLOBIN: 13.45 G/DL
  LEUKOCYTE COUNT: 13.58 x10E3/uL
  LYMPHOCYTE: 81.17%
  MEAN CORPUSCULAR HEMOGLOBIN: 25.12 pg
  MEAN CORPUSCULAR HEMOGLOBIN CONCENTRATION: 39.12 G/DL
  MEAN CORPUSCULAR VOLUME: 64.18 fL
  MONOCYTE: 1.67%
  NEUTROPHIL: 16.83%
  NUCLEATED RED BLOOD CELLS: 0 /100WBC
  PLATELET COUNT: 997.5 x10E3/uL
  ALANINE AMINOTRANSFERASE: 66.83 u/L
  ALBUMIN: 4.27 G/DL
  ALKALINE PHOSPHATASE: 267.67 u/L
  ASPARTATE AMINOTRANSFERASE: 90 u/L
  BLOOD UREA NITROGEN: 9.33 mg/dL
  CARBON DIOXIDE: 28.5 mmol/L
  CHLORIDE: 100.17 MEQ/L
  CHOLESTEROL: 68 mg/dL
  CREATINE PHOSPHOKINASE: 295 u/L
  CREATININE: 0.14 mg/dL
  GLUCOSE: 153.5 mg/dL
  LACTATE DEHYDROGENASE: 198.83 u/L
  LIPASE: 11.83 u/L
  PHOSPHORUS: 10.27 mg/dL
  POTASSIUM: 5.27 MEQ/L
  SODIUM: 144.05 MEQ/L
  TOTAL BILIRUBIN: 0.1 mg/dL
  TOTAL PROTEIN: 5.6 G/DL
  URIC ACID: 1.15 mg/dL
